What all share (assay type): cell-based, human
Assay [1] has as its system SGC-7901 early differentiation gastric cancer cell. Put plainly: MTT anti-proliferative assay, SGC-7901. The following applies: MTT, 48 h. The method, boiled down:
(§1)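 Cell lines plated in 96-well plates and exposed to compounds; anti-proliferative activity determined by MTT read-out as inhibition of net cell growth.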
(Formazan colour is commonly taken as a measure of viable cells.)

A further assay deals with AGS gastric cancer cell. Put plainly: MTT anti-proliferative assay, AGS. The following applies: for IC50: MTT, 48 h. Put shortly:
as §1

The test system of assay [2] is Raji B lymphoblastoid cell. In words: MTT anti-proliferative assay, Raji. The following applies: for IC50: MTT, 48 h, read-out: IC50 Raji. The method, boiled down:
as §1

Assay [3] deals with HCT116 colectal cancer cell. Put plainly: MTT anti-proliferative assay, HCT116. The following applies: for IC50: MTT, 48 h, read-out: IC50 HCT-116. Put shortly:
as §1

The subject of the next assay is HepG2 hepatoma cell. Put plainly: MTT anti-proliferative assay, HepG2. The following applies: MTT, 48 h; read-out: IC50 HepG-2. Put shortly: as §1
Assay [4] has as its system HeLa cervical cancer cell. Put plainly: MTT anti-proliferative assay, HeLa. The following applies: MTT, 48 h. Put shortly:
as §1

Assay [5] relates to diffuse large B-cell lymphoma SU-DHL-10 cell. In words: MTT anti-proliferative assay, SU-DHL-10. The following applies: for IC50: MTT, 48 h, read-out: IC50 SU-DHL-10. The method, boiled down: as §1
Assay [6] deals with MCF-10A normal breast cell. In words: MTT assay, MCF-10A normal cells. The following applies: 48 h. Put shortly: as §1
The test system of a further assay is A549 lung cancer cell. In words: MTT anti-proliferative assay, A549. The following applies: for IC50: MTT, 48 h. The method, boiled down:
as §1

For the next assay, the system named is L-02 normal liver cell. In words: MTT assay, L-02 normal cells. The following applies: 48 h. Put shortly:
as §1

Assay [7] has as its system BEL-7402 liver cancer cell. Put plainly: MTT anti-proliferative assay, BEL-7402. The following applies: MTT, 48 h. The method, boiled down: as §1
Assay [8] has as its system MGC-803 late stage differentiation gastric cancer cell. In words: MTT anti-proliferative assay, MGC-803. The following applies: for IC50: MTT, 48 h. Put shortly:
as §1

A further assay concerns MCF-7 breast cancer cell. In words: MTT anti-proliferative assay, MCF-7. The following applies: MTT, 48 h. Put shortly:
as §1

This note sets out measurements from PMC11071649, “Synthesis and Selective Anticancer Activity Evaluation of 2-phenylacrylonitrile Derivatives as Tubulin Inhibitors” (Current Medicinal Chemistry, 2024).

As a reminder, the IC50 is the point on the concentration scale where inhibition reaches its midpoint. Regarding `CN(C)c1ccc(/C=C(\C#N)c2ccc(C(F)(F)F)cc2)cc1` [Compound 1f2a], the half-inhibitory concentration (IC50) (in [1]; in the assay on AGS gastric cancer cell; in assay [2]; in assay [3]; in the assay with HepG2 hepatoma cell; in assay [4]) was above 100 µM in each case. Also, the IC50 (in assay [5]; in assay [6]; in the assay on A549 lung cancer cell; in the assay on L-02 normal liver cell; in assay [7]; in assay [8]) was above 100 µM throughout. The compound further displayed an IC50 in the assay with MCF-7 breast cancer cell above 100 µM.
With `CCN(CC)c1ccc(/C=C(\C#N)c2ccc(C(F)(F)F)cc2)cc1` [Compound 1f2b], the 50% inhibitory concentration (IC50) was above 100 µM in assay [1]; above 100 µM in the assay with AGS gastric cancer cell; above 100 µM in assay [2]; 33 ± 5.8 µM in assay [3]; above 100 µM in the assay with HepG2 hepatoma cell; above 100 µM in assay [4]. Further, the IC50 (in [5]; in [6]; in the assay on A549 lung cancer cell; in the assay with L-02 normal liver cell; in [7]; in assay [8]) was above 100 µM throughout. The half-maximal inhibitory concentration (IC50) with MCF-7 breast cancer cell is above 100 µM. Besides, the “SI (selectivity index), IC50 (L-02)/IC50 (HCT-116)” value in assay [3] is recorded as above 3.0.
`N#C/C(=C\c1ccccc1)c1ccc(C(F)(F)F)cc1` [Compound 1f2c]: the IC50 (in assay [1]; with AGS gastric cancer cell; in [2]; in assay [3]; in the assay with HepG2 hepatoma cell; in assay [4]) was above 100 µM throughout. Besides, the IC50 (in [5]; in assay [6]; in the assay on A549 lung cancer cell; in the assay on L-02 normal liver cell; in assay [7]; in [8]) was above 100 µM throughout. Further, in the assay on MCF-7 breast cancer cell, the half-maximal inhibitory concentration (IC50) is above 100 µM.
Turning to `N#C/C(=C\c1ccc(F)cc1)c1ccc(C(F)(F)F)cc1` [Compound 1f2d], the 50% inhibitory concentration (IC50) (in assay [1]; in the assay on AGS gastric cancer cell; in assay [2]; in assay [3]; in the assay on HepG2 hepatoma cell; in assay [4]) was above 100 µM each time. Further, the IC50 in assay [5] was above 100 µM; in assay [6], above 100 µM; in the assay on A549 lung cancer cell it was above 100 µM; in the assay with L-02 normal liver cell, above 100 µM; in assay [7], above 100 µM; in [8], 51.9 ± 2.1 µM. This compound also yielded an IC50 in the assay with MCF-7 breast cancer cell above 100 µM. Besides, the “SI (selectivity index), IC50 (L-02)/IC50 (MGC-803)” value in assay [8] is above 1.9.
Regarding `N#C/C(=C\c1ccc(Cl)cc1)c1ccc(C(F)(F)F)cc1` [Compound 1f2e], the IC50 (in assay [1]; in the assay with AGS gastric cancer cell; in assay [2]; in assay [3]; with HepG2 hepatoma cell; in [4]) was above 100 µM throughout. For the same compound, the IC50 (in assay [5]; in [6]; with A549 lung cancer cell; in the assay with L-02 normal liver cell; in [7]; in [8]) was above 100 µM each time. This compound also gave an IC50 in the assay with MCF-7 breast cancer cell above 100 µM.
As to `N#C/C(=C\c1ccc(Br)cc1)c1ccc(C(F)(F)F)cc1` [Compound 1f2f], the IC50 (in [1]; with AGS gastric cancer cell; in assay [2]; in [3]; in the assay with HepG2 hepatoma cell; in assay [4]) was above 100 µM in each case. For the same compound, the IC50 (in [5]; in assay [6]; with A549 lung cancer cell; with L-02 normal liver cell; in assay [7]; in assay [8]) was above 100 µM throughout. Also, the IC50 with MCF-7 breast cancer cell was above 100 µM.
For the compound `N#C/C(=C\c1ccccc1F)c1ccc(C(F)(F)F)cc1` [Compound 1f2g], the IC50 (in assay [1]; in the assay on AGS gastric cancer cell; in assay [2]; in [3]; with HepG2 hepatoma cell; in [4]) was above 100 µM each time. For the same compound, the IC50 (in assay [5]; in assay [6]; in the assay with A549 lung cancer cell; with L-02 normal liver cell; in [7]; in assay [8]) was above 100 µM each time. In the assay on MCF-7 breast cancer cell, this compound yielded an IC50 above 100 µM.
As for `N#C/C(=C\c1cccc(F)c1)c1ccc(C(F)(F)F)cc1` [Compound 1f2h], the IC50 (in assay [1]; in the assay with AGS gastric cancer cell; in assay [2]; in assay [3]; in the assay on HepG2 hepatoma cell; in [4]) was above 100 µM each time. Further, the IC50 in assay [5] was 58.4 ± 9 µM; in assay [6], above 100 µM; with A549 lung cancer cell it was above 100 µM; in the assay on L-02 normal liver cell, above 100 µM; in [7], above 100 µM; in assay [8] it was above 100 µM. In the assay on MCF-7 breast cancer cell, this compound yielded an IC50 above 100 µM. Further, the “SI (selectivity index), IC50 (L-02)/IC50 (SU-DHL-10)” value in [5] is above 1.7.
Regarding `N#C/C(=C\c1ccccc1Br)c1ccc(C(F)(F)F)cc1` [Compound 1f2i], the IC50 in [1] was above 100 µM; in the assay with AGS gastric cancer cell, 42 ± 11.7 µM; in assay [2], above 100 µM; in [3], above 100 µM; in the assay on HepG2 hepatoma cell, above 100 µM; in assay [4] it was above 100 µM. Also, the IC50 (in [5]; in assay [6]; in the assay on A549 lung cancer cell; with L-02 normal liver cell; in assay [7]; in assay [8]) was above 100 µM in each case. Also, the IC50 in the assay on MCF-7 breast cancer cell is above 100 µM. Besides, the “SI (selectivity index), IC50 (L-02)/IC50 (AGS)” value (shortened to “SI (selectivity index) … (AGS)”) in the assay with AGS gastric cancer cell is above 2.3.
For the compound `N#C/C(=C\c1c(F)cccc1Cl)c1ccc(C(F)(F)F)cc1` [Compound 1f2j], the IC50 (in assay [1]; in the assay on AGS gastric cancer cell; in [2]; in [3]; in the assay on HepG2 hepatoma cell; in assay [4]) was above 100 µM throughout. The IC50 (in assay [5]; in assay [6]; with A549 lung cancer cell; in the assay on L-02 normal liver cell; in assay [7]; in assay [8]) was above 100 µM in each case. The same compound came in with an IC50 in the assay on MCF-7 breast cancer cell above 100 µM.
For `N#C/C(=C\c1ccc(C(F)(F)F)cc1)c1ccc(C(F)(F)F)cc1` [Compound 1f2k], the IC50 was above 100 µM in assay [1]; 53.2 ± 13.2 µM in the assay on AGS gastric cancer cell; 77.4 ± 13.6 µM in [2]; above 100 µM in [3]; above 100 µM in the assay with HepG2 hepatoma cell; above 100 µM in [4]. Also, the IC50 was above 100 µM in assay [5]; above 100 µM in [6]; 47.8 ± 4 µM with A549 lung cancer cell; above 100 µM in the assay with L-02 normal liver cell; above 100 µM in assay [7]; above 100 µM in [8]. In addition, the IC50 in the assay on MCF-7 breast cancer cell is above 100 µM. In addition, the “SI (selectivity index) … (AGS)” value in the assay on AGS gastric cancer cell is above 1.8. Moreover, the “SI (selectivity index), IC50 (L-02)/IC50 (A549)” value with A549 lung cancer cell was above 2.0.
As to `N#C/C(=C\c1cccc(C(F)(F)F)c1)c1ccc(C(F)(F)F)cc1` [Compound 1f2l], the concentration for half-maximal inhibition (IC50) in assay [1] was above 100 µM; with AGS gastric cancer cell, above 100 µM; in assay [2], 72.1 ± 7.2 µM; in [3], above 100 µM; in the assay with HepG2 hepatoma cell it was above 100 µM; in assay [4], above 100 µM. Besides, the half-inhibitory concentration (IC50) in assay [5] was 50.1 ± 20.9 µM; in [6], above 100 µM; in the assay with A549 lung cancer cell, above 100 µM; in the assay on L-02 normal liver cell, above 100 µM; in assay [7], above 100 µM; in assay [8] it was above 100 µM. In the assay with MCF-7 breast cancer cell, this compound gave a concentration for half-maximal inhibition (IC50) above 100 µM. Further, in assay [2], the “SI (selectivity index), IC50 (L-02)/IC50 (Raji)” value is above 1.3. Further, in assay [5], the “SI (selectivity index), IC50 (L-02)/IC50 (SU-DHL-10)” value is above 1.9.
In the case of `N#C/C(=C\c1ccccc1C(F)(F)F)c1ccc(C(F)(F)F)cc1` [Compound 1f2m], the IC50 (in assay [1]; with AGS gastric cancer cell; in [2]; in assay [3]; in the assay with HepG2 hepatoma cell; in [4]) was above 100 µM throughout. In addition, the IC50 (in assay [5]; in assay [6]; in the assay with A549 lung cancer cell; in the assay on L-02 normal liver cell; in assay [7]; in [8]) was above 100 µM in each case. The same compound came in with an IC50 in the assay on MCF-7 breast cancer cell above 100 µM. Besides, the “SI (selectivity index) … (AGS)” value in the assay with AGS gastric cancer cell is above 2.1. Also, in [3], the “SI (selectivity index), IC50 (L-02)/IC50 (HCT-116)” value is reported as above 1.7. Also, the “SI (selectivity index), IC50 (L-02)/IC50 (A549)” value in the assay on A549 lung cancer cell is listed as above 2.6.
With `Cc1ccc(/C=C(\C#N)c2ccc(C(F)(F)F)cc2)cc1` [Compound 1f2n], the IC50 in assay [1] is above 100 µM; in the assay on AGS gastric cancer cell, 46.4 ± 15 µM; in assay [2] it was above 100 µM; in assay [3], 57.3 ± 3.2 µM; in the assay with HepG2 hepatoma cell, above 100 µM; in assay [4], above 100 µM. Moreover, the IC50 in [5] was above 100 µM; in assay [6], above 100 µM; in the assay on A549 lung cancer cell it was 37.9 ± 1 µM; with L-02 normal liver cell it was above 100 µM; in assay [7], above 100 µM; in [8], above 100 µM. Besides, the IC50 in the assay on MCF-7 breast cancer cell was above 100 µM. Also, the “SI (selectivity index) … (AGS)” value with AGS gastric cancer cell is reported as above 2.4.
